Data as given in PMC10175918 (Communications Biology, 2023).
Values joined by “and” are separate entries in the source; they are usually repeats but may differ in a detail not shown here. Identical values can stand only once.

How the values were obtained:
[1] = test system: adult mouse cardiomyocytes; test: Contractility under pacing of adult mouse cardiomyocytes; format: cell-based; details: 10 µM remdesivir, 30 min
Experimental: C57BL/6J mice for the isolation of adult mouse cardiomyocytes were purchased from Japan SLC Inc. (Shizuoka, Japan). Isolation of adult mouse ventricular cardiomyocytes was performed. Male mice were anesthetized by inhalation with isoflurane. The heart was quickly excised, and the aorta was clamped with a small vascular clamp. The heart was antegradely perfused with isolation buffer (less than 3 mL) containing 130 mM NaCl, 5.4 mM KCl, 0.5 mM MgCl2, 0.33 mM NaH2PO4, 25 mM HEPES, 22 mM glucose, and 50 μU/mL bovine insulin (Sigma) (pH 7.4, adjusted with NaOH) supplemented with 0.4 mM EGTA, followed by the perfusion of enzyme solution (10 mL) (isolation buffer containing 1 mg/mL collagenase type 2 (Worthington), 0.06 mg/mL trypsin (Sigma), 0.06 mg/mL protease (Sigma), and 0.3 mM CaCl2). Thereafter, the LV chamber was removed and cut into small pieces in an enzyme solution containing 0.2% bovine serum albumin (BSA) and 0.7 mM CaCl2. The tissue-cell suspension was filtered through a cell strainer (100 μm, Falcon) and centrifuged for 3 min at 50×g. After removing the supernatant, the cell pellet was resuspended in isolation buffer supplemented with 0.2% BSA and 1.2 mM CaCl2 and incubated for 7 min at 37 °C. […]
Microscopic images of cardiomyocytes were recorded for 13 seconds under pacing conditions. […] Imaging data were analyzed using Fiji software.

[2] = cited from earlier work
UTS2R V159M = test: TGFα-shedding assay on UTS2R SNV mutant V159M; format: cell-based, human; details: cutoff value set to −1, single replicates
[3] = parameters: method as in earlier work; details: intravenous injection, healthy adults; cited from earlier work

CCC(CC)COC(=O)[C@H](C)N[P@](=O)(OC[C@H]1O[C@@](C#N)(c2ccc3c(N)ncnn23)[C@H](O)[C@@H]1O)Oc1ccccc1 [remdesivir]
contraction of adult cardiomyocytes [1]: significantly impaired the contraction | patients showing arrhythmias (other than atrial fibrillation, supraventricular tachycardia, ventricular tachycardia, ventricular fibrillation) ([2]; ACTT-1 trial, patients receiving remdesivir): 0.2 % of patients | time to resolution of cardiac adverse effects after discontinuing remdesivir [2]: 24 to 48 h | ⊿pEC50 compared to WT UTS2R (UTS2R V159M): > 0.3 and 0.3136 and 0.3109 and 0.3308 and 0.4558 | maximum plasma concentration [3]: 9.03 µM
